Reference: patent US6620831B2, “Indazoles substituted with 1,1-dioxoisothiazolidine useful as inhibitors of cell proliferation” (LG Life Sciences Ltd., priority 2000, dated 2003)

Each compound was assayed against T1, CDK2/cyclin A (Homo sapiens, UniProt P24941) (assay: CDK2 inhibitory activity (CDK2/cyclin A, [gamma-32P] ATP, histon H1 or Rb protein substrate)). Conditions: first IC50 column (c1) of Table 1.
T1 construct: made in house; host or cells: insect ('worm') cells co-infected with baculoviruses
Format: biochemical
Description: CDK2 enzyme was obtained from either extract from the worm cell co-infected with baculovirus which expresses a CDK2 gene and baculovirus which expresses a cyclin A gene, or active enzyme purified therefrom. CDK4 was also obtained from either extract from the worm cell co-infected with baculovirus which expresses a CDK4 gene and baculovirus which expresses a cyclin D1 gene. As substrates, histon H1 or Rb protein was used for CDK2, and Rb protein for CDK4. The radioactive activities in substrates were determined by reacting compounds diluted with each concentration with a proper quantity of CDK2/cyclin A or CDK4/cyclin D1 and substrate protein, and [gamma-32P labeled] ATP, and then separating the substrates.
Inhibitory abilities of inhibitors according to the present invention for each enzyme activity were expressed as IC50 values, which were determined in accordance with the method as described above.

| IC50 [µM] | SMILES |
| --- | --- |
| < 0.05 | O=C(Cc1ccccc1)Nc1n[nH]c2ccc(N3CCCS3(=O)=O)cc12 [Compound 1, N-[5-(1,1-dioxo-1λ^6-isothiazolidin-2-yl)-1H-indazol-3-yl]-2-phenylacetamide] |
| < 0.05 | O=C(Cc1cccc(Cl)c1)Nc1n[nH]c2ccc(N3CCCS3(=O)=O)cc12 [Compound 2, 2-(3-chlorophenyl)-N-[5-(1,1-dioxo-1λ^6-isothiazolidin-2-yl)-1H-indazol-3-yl]acetamide] |
| < 0.1 | O=C(Cc1ccc(OCc2ccccc2)cc1)Nc1n[nH]c2ccc(N3CCCS3(=O)=O)cc12 [Compound 3, 2-[4-(benzyloxy)phenyl]-N-[5-(1,1-dioxo-1λ^6-isothiazolidin-2-yl)-1H-indazol-3-yl]acetamide] |
| < 0.05 | O=C(Cc1ccc(O)cc1)Nc1n[nH]c2ccc(N3CCCS3(=O)=O)cc12 [Compound 4, N-[5-(1,1-dioxo-1λ^6-isothiazolidin-2-yl)-1H-indazol-3-yl]-2-(4-hydroxyphenyl)acetamide] |
| < 0.5 | O=C(Cc1ccc(N(Cc2ccccc2)Cc2ccccc2)cc1)Nc1n[nH]c2ccc(N3CCCS3(=O)=O)cc12 [Compound 5, 2-[4-(dibenzylamino)phenyl]-N-[5-(1,1-dioxo-1λ^6-isothiazolidin-2-yl)-1H-indazol-3-yl]acetamide] |
| < 0.05 | CNc1ccc(CC(=O)Nc2n[nH]c3ccc(N4CCCS4(=O)=O)cc23)cc1 [Compound 6, N-[5-(1,1-dioxo-1λ^6-isothiazolidin-2-yl)-1H-indazol-3-yl]-2-[4-(methylamino)phenyl]acetamide] |
| < 0.05 | Nc1ccc(CC(=O)Nc2n[nH]c3ccc(N4CCCS4(=O)=O)cc23)cc1 [Compound 7, 2-(4-aminophenyl)-N-[5-(1,1-dioxo-1λ^6-isothiazolidin-2-yl)-1H-indazol-3-yl]acetamide] |
| < 0.05 | O=C(Cc1ccc(Cl)cc1)Nc1n[nH]c2ccc(N3CCCS3(=O)=O)cc12 [Compound 8, 2-(4-chlorophenyl)-N-[5-(1,1-dioxo-1λ^6-isothiazolidin-2-yl)-1H-indazol-3-yl]acetamide] |
| < 0.05 | O=C(Cc1ccc(F)cc1)Nc1n[nH]c2ccc(N3CCCS3(=O)=O)cc12 [Compound 9, N-[5-(1,1-dioxo-1λ^6-isothiazolidin-2-yl)-1H-indazol-3-yl]-2-(4-fluorophenyl)acetamide] |
| < 0.05 | O=C(Cc1ccc(-c2ccccc2)cc1)Nc1n[nH]c2ccc(N3CCCS3(=O)=O)cc12 [Compound 10, 2-[1,1′-biphenyl]-4-yl-N-[5-(1,1-dioxo-1λ^6-isothiazolidin-2-yl)-1H-indazol-3-yl]acetamide] |
| < 0.05 | O=C(Cc1cccc(Br)c1)Nc1n[nH]c2ccc(N3CCCS3(=O)=O)cc12 [Compound 11, 2-(3-bromophenyl)-N-[5-(1,1-dioxo-1λ^6-isothiazolidin-2-yl)-1H-indazol-3-yl]acetamide] |
| < 0.05 | O=C(Cc1ccc(Br)cc1)Nc1n[nH]c2ccc(N3CCCS3(=O)=O)cc12 [Compound 12, 2-(4-bromophenyl)-N-[5-(1,1-dioxo-1λ^6-isothiazolidin-2-yl)-1H-indazol-3-yl]acetamide] |
| < 10 | O=S1(=O)CCCN1c1ccc2[nH]nc(NC(=S)Cc3ccccc3)c2c1 [Compound 13, N-[5-(1,1-dioxo-1λ^6-isothiazolidin-2-yl)-1H-indazol-3-yl]-2-phenylethanethioamide] |
| < 10 | O=S1(=O)CCCN1c1ccc2[nH]nc(NC(Cc3ccccc3)=NO)c2c1 [Compound 14, N-[5-(1,1-dioxo-1λ^6-isothiazolidin-2-yl)-1H-indazol-3-yl]-N′-hydroxy-2-phenylethaneimidoamide] |
| < 0.05 | O=C(Cc1ccc2c(c1)OCO2)Nc1n[nH]c2ccc(N3CCCS3(=O)=O)cc12 [Compound 15, 2-(1,3-benzodioxol-5-yl)-N-[5-(1,1-dioxo-1λ^6-isothiazolidin-2-yl)-1H-indazole-3-yl]acetamide] |
| < 0.05 | O=C(Cc1cccc2ccccc12)Nc1n[nH]c2ccc(N3CCCS3(=O)=O)cc12 [Compound 16, N-[5-(1,1-dioxo-1λ^6-isothiazolidin-2-yl)-1H-indazol-3-yl]-2-(1-naphthyl)acetamide] |
| < 0.05 | O=C(Cc1ccc2ccccc2c1)Nc1n[nH]c2ccc(N3CCCS3(=O)=O)cc12 [Compound 17, N-[5-(1,1-dioxo-1λ^6-isothiazolidin-2-yl)-1H-indazol-3-yl]-2-(2-naphthyl)acetamide] |
| < 0.05 | O=C(Cc1cccc([N+](=O)[O-])c1)Nc1n[nH]c2ccc(N3CCCS3(=O)=O)cc12 [Compound 18, N-[5-(1,1-dioxo-1λ^6-isothiazolidin-2-yl)-1H-indazol-3-yl]-2-(3-nitrophenyl)acetamide] |
| > 100 | CC(=O)Nc1n[nH]c2ccc(N3CCCS3(=O)=O)cc12 [Compound 19, N-[5-(1,1-dioxo-1λ^6-isothiazolidin-2-yl)-1H-indazol-3-yl]acetamide] |
| < 0.05 | CSc1ccc(CC(=O)Nc2n[nH]c3ccc(N4CCCS4(=O)=O)cc23)cc1 [Compound 20, N-[5-(1,1-dioxo-1λ^6-isothiazolidin-2-yl)-1H-indazol-3-yl]-2-[4-(methylsulfanil)phenyl]acetamide] |
| < 0.05 | Nc1cccc(CC(=O)Nc2n[nH]c3ccc(N4CCCS4(=O)=O)cc23)c1 [Compound 21, 2-(3-aminophenyl)-N-[5-(1,1-dioxo-1λ^6-isothiazolidin-2-yl)-1H-indazol-3-yl]acetamide] |
| < 50 | CC(=S)Nc1n[nH]c2ccc(N3CCCS3(=O)=O)cc12 [Compound 22, N-[5-(1,1-dioxo-1λ^6-isothiazolidin-2-yl)-1H-indazol-3-yl]ethanethioamide] |
| < 100 | CC(=NO)Nc1n[nH]c2ccc(N3CCCS3(=O)=O)cc12 [Compound 23, N-[5-(1,1-dioxo-1λ^6-isothiazolidin-2-yl)-1H-indazol-3-yl]-N′-hydroxyethaneimidoamide] |
| < 0.05 | O=C(Cc1ccc(Cl)c(Cl)c1)Nc1n[nH]c2ccc(N3CCCS3(=O)=O)cc12 [Compound 24, 2-(3,4-dichlorophenyl)-N-[5-(1,1-dioxo-1λ^6-isothiazolidin-2-yl)-1H-indazol-3-yl]acetamide] |
| < 1 | O=C(CCc1ccccc1)Nc1n[nH]c2ccc(N3CCCS3(=O)=O)cc12 [Compound 25, N-[5-(1,1-dioxo-1λ^6-isothiazolidin-2-yl)-1H-indazol-3-yl]-3-phenylpropanamide] |
| < 0.05 | CC(C)c1ccc(CC(=O)Nc2n[nH]c3ccc(N4CCCS4(=O)=O)cc23)cc1 [Compound 26, N-[5-(1,1-dioxo-1λ^6-isothiazolidin-2-yl)-1H-indazol-3-yl]-2-(4-isopropylphenyl)acetamide] |
| < 0.05 | Cc1cccc(CC(=O)Nc2n[nH]c3ccc(N4CCCS4(=O)=O)cc23)c1 [Compound 27, N-[5-(1,1-dioxo-1λ^6-isothiazolidin-2-yl)-1H-indazol-3-yl]-2-(3-methylphenyl)acetamide] |
| < 0.05 | Cc1ccc(CC(=O)Nc2n[nH]c3ccc(N4CCCS4(=O)=O)cc23)cc1 [Compound 28, N-[5-(1,1-dioxo-1λ^6-isothiazolidin-2-yl)-1H-indazol-3-yl]-2-(4-methylphenyl)acetamide] |
| < 0.05 | CS(=O)(=O)c1ccc(CC(=O)Nc2n[nH]c3ccc(N4CCCS4(=O)=O)cc23)cc1 [Compound 29, N-[5-(1,1-dioxo-1λ^6-isothiazolidin-2-yl)-1H-indazol-3-yl]-2-[4-(methylsulfonyl)phenyl]acetamide] |
